“Also recorded” adds a separate entry of the source. Where two headings read alike, the source gives them in different places.
Tests used:
CquiOR2 + CquiOR7 = CquiOR2 + CquiOR7 (Culex quinquefasciatus, UniProt D5LMR6); experiment: Two-electrode voltage clamp of Xenopus oocytes expressing CquiOR2 + CquiOR7; type: cell-based; settings: for nH (Hill coefficient): Hill fit of concentration-response data, 5–16 oocytes; for Emax: read-out: Relative Efficacy; for current response in panel screen: each compound applied for 20 s at 10 µM; for relative efficacies (maximal responses) compared with indole: in words
Sequence of CquiOR2 + CquiOR7 (Q309I4 entry or part of it): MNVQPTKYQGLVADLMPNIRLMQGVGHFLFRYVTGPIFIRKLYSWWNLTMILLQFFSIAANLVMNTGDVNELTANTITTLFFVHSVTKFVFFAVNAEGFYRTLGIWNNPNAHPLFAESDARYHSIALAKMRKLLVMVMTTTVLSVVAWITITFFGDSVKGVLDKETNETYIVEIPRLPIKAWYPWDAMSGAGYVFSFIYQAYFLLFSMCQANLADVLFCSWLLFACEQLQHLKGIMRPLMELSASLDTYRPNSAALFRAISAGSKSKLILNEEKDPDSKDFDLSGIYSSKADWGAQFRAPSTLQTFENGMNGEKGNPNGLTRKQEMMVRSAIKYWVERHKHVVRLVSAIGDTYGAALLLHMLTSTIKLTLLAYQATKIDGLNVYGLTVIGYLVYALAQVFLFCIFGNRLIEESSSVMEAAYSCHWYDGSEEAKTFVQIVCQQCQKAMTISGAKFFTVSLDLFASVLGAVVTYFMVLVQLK
Sequence of CquiOR2 + CquiOR7 (D5LMR6 entry or part of it): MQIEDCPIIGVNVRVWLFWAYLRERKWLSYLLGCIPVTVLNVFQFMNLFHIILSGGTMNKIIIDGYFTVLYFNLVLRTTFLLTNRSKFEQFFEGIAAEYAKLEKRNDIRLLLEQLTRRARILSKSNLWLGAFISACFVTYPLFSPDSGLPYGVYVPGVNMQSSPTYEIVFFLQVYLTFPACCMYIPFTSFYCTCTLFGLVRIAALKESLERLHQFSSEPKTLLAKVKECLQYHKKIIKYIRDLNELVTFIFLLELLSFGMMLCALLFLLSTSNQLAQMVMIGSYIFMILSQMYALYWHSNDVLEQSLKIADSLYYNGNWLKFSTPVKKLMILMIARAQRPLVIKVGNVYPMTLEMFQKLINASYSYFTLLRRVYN
Experimental: Oocytes were surgically removed from mature Xenopus laevis frogs (Nasco). The care and use of Xenopus laevis frogs in this study were approved by the University of Miami Animal Research Committee and meet the guidelines of the National Institutes of Health. Follicle cells were removed by treatment with Collagenase B (Boehringer Mannhem) for 2 h at room temperature. CquiOR2 and CquiOR7 were transferred into pGEMHE [27]. Capped cRNA encoding each OR subunit was generated using mMessage mMachine kits (Ambion). 25 ng of cRNA encoding each OR subunit was injected into Stage V-VI Xenopus oocytes. Oocytes were incubated at 18°C in Barth's saline (in mM: 88 NaCl, 1 KCl, 2.4 NaHCO3, 0.3 CaNO3, 0.41 CaCl2, 0.82 MgSO4, 15 HEPES, pH 7.6, and 100 µg/ml amikacin) for 2–5 days prior to electrophysiological recording.
Odorant-induced currents were recorded under two-electrode voltage clamp from oocytes expressing ORs, using an automated parallel electrophysiology system (OpusXpress 6000A; Molecular Devices). Oocytes were perfused with ND96 (in mM: 96 NaCl, 2 KCl, 1 CaCl2, 1 MgCl2, 5 HEPES, pH 7.5). […] Micropipettes were filled with 3 M KCl and had resistances of 0.2–2.0 MΩ. The holding potential was −70 mV. Current responses were filtered (4-pole, Bessel, low pass) at 20 Hz (-3 db), sampled at 100 Hz and were captured and stored using OpusXpress 1.1 software (Molecular Devices). Initial analysis of electrophysiological data was done using Clampfit 9.1 software (Molecular Devices). Curve fitting of concentration-response data was done using Prism 4 (Graphpad). Concentration-response data were fit to the equation: I = Imax/(1+(EC50/X)^n) where I represents the current response at a given concentration of odorant, X; Imax is the maximal response; EC50 is the concentration of odorant yielding a half maximal response; n is the apparent Hill coefficient.

AgamOR2 = tested on: AgamOR2; parameters: method as in PMID 20130575, PMID 20160092, PMID 14724626, PMID 18427108; settings: cited from earlier work
[1] = tested on: ORN-B in the blunt-tipped trichoid sensilla A2; parameters: method as in PMID 19858490; settings: cited from earlier work; for excitatory response of ORN-B: compounds tested individually
gravid Culex mosquitoes = tested on: gravid Culex mosquitoes; parameters: method as in PMID 18725946, PMID 10083752, PMID 1583482, PMID 15274442; settings: indoor bioassays and field tests; cited from earlier work
AgamOR10 = tested on: AgamOR10; parameters: method as in PMID 20130575, PMID 20160092, PMID 18427108; settings: cited from earlier work
[2] = 20 s applications, Hill fit, mean ± SEM, 5–16 separate oocytes, read-out: EC50
[3] = maximum value from fit, as percentage of the maximum value for indole, mean ± SEM

Compound | nH (Hill coefficient) (CquiOR2 + CquiOR7; mean ± SEM) | EC50 (CquiOR2 + CquiOR7; [2]) [µM] | Emax (CquiOR2 + CquiOR7; [3]) [%] | relative efficacies (maximal responses) compared with indole (CquiOR2 + CquiOR7) | further results
Cn1ccc2ccccc21 [1-Methylindole] | 1.3±0.5 |  |  |  | EC50 (CquiOR2 + CquiOR7): 20 ± 6 µM; Emax (CquiOR2 + CquiOR7): 84 ± 9%
Cc1cc2ccccc2[nH]1 [2-Methylindole] | 0.9±0.4 | 7.5 ± 4.1 | 106 ± 16 |  | 
Cc1ccccc1O [2-Methylphenol] | 1.0±0.2 |  |  | lower relative efficacies than indole | EC50 (CquiOR2 + CquiOR7): 7.3 ± 1.5 µM; current response in panel screen (CquiOR2 + CquiOR7): responded well; also recorded: best responses for phenolic compounds; Emax (CquiOR2 + CquiOR7): 70 ± 9%; response of AgamOR2 (AgamOR2): strongly respond; excitatory response of ORN-B [1]: eliciting the strongest response
Cc1c[nH]c2ccccc12 [3-Methylindole] | 0.9±0.2 | 20 ± 6 | 92 ± 8 |  | attraction of gravid Culex mosquitoes (gravid Culex mosquitoes): attractants; response of AgamOR2 (AgamOR2): strongly respond; response of AgamOR10 (AgamOR10): strongly respond
Cc1cccc(O)c1 [3-methylphenol] |  |  |  |  | response threshold compared with 2-methylphenol [1]: three orders of magnitude higher
Cc1cccc2[nH]ccc12 [4-Methylindole] | 1.0±0.2 | 3.6 ± 0.8 | 60 ± 4 | lower relative efficacies than indole | 
Cc1ccc(O)cc1 [4-methylphenol] |  |  |  |  | response of AgamOR10 (AgamOR10): strongly respond; response threshold compared with 2-methylphenol [1]: three orders of magnitude higher
Cc1ccc2[nH]ccc2c1 [5-Methylindole] | 1.1±0.2 | 8.6 ± 2 | 59 ± 4 | lower relative efficacies than indole | 
Cc1ccc2cc[nH]c2c1 [6-Methylindole] | 0.9±0.2 | 3 ± 0.6 | 69 ± 4 | lower relative efficacies than indole | 
Cc1cccc2cc[nH]c12 [7-Methylindole] | 1.1±0.2 | 18 ± 3 | 67 ± 4 | lower relative efficacies than indole | 
c1ccc2[nH]ccc2c1 [Indole] | 0.8±0.2 |  |  |  | attraction of gravid Culex mosquitoes (gravid Culex mosquitoes): attractants; EC50 (CquiOR2 + CquiOR7): 0.28 ± 0.12 µM; selectivity for indole over the various methylindoles (CquiOR2 + CquiOR7; Xenopus oocyte system): 10- to 70 fold; current response in panel screen (CquiOR2 + CquiOR7): largest current responses; Emax (CquiOR2 + CquiOR7): 100%; response of AgamOR2 (AgamOR2): strongly respond; response of AgamOR10 (AgamOR10): strongly respond; excitatory response of ORN-B [1]: strongest dose-dependent responses; selectivity for indole over methylindoles ([1]; single sensillum recordings from A2): three orders of magnitude selectivity

Source: PMC2851645, “An Odorant Receptor from the Southern House Mosquito Culex pipiens quinquefasciatus Sensitive to Oviposition Attractants” (PLoS ONE, 2010)
